Test results from patent publication US20200009143A1, “REPURPOSING OF CANCER DRUGS FOR TREATMENT OF MYCOBACTERIUM” (STC.UNM, priority 2016, published 2020).

Tests used:
[1] = system: RAW 264.7 macrophages; details: PARP inhibition; cited from earlier work
[2] = human, in vivo; cited from earlier work
[3] = target: PARP (Mus musculus, UniProt P11103); assay: whole cell PARP inhibition in UV-activated RAW 264.7 macrophages, PARP activity by ELISA; assay type: cell-based
[4] = system: tuberculosis; details: systemically delivered, despite significant plasma levels; cited from earlier work
[5] = in vivo; cited from earlier work

PARP, sequence (P11103 2-1013): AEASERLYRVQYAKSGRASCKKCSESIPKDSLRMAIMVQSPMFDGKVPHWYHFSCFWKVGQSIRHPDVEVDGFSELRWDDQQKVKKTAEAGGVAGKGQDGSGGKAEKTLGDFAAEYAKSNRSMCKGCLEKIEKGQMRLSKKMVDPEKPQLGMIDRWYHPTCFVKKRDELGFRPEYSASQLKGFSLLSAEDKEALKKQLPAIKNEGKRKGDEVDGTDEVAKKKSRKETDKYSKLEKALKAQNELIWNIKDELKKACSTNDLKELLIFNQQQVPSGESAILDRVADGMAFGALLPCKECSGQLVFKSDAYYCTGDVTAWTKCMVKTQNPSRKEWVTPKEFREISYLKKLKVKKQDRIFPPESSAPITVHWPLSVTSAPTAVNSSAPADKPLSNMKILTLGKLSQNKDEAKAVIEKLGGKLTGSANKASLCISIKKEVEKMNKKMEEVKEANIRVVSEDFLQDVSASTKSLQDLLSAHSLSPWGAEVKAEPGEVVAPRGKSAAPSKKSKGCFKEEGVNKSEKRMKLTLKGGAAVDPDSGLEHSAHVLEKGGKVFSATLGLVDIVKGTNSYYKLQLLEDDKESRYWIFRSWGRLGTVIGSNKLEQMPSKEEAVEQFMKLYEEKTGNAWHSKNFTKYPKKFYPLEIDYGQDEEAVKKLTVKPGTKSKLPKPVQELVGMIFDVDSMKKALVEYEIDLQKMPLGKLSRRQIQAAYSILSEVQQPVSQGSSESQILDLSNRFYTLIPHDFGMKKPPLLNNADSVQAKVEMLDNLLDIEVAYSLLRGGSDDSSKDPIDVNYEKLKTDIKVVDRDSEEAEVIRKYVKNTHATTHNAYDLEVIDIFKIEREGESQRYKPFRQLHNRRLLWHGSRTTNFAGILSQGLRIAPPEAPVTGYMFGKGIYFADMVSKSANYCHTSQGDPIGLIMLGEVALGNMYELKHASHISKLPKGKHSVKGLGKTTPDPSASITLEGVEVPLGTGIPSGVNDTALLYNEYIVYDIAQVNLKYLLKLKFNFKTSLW

NC(=O)c1cccc(N)c1 [3-aminobenzamide]
inhibition of mycobacteria-induced macrophage necrosis [1]: strongly inhibited

NC(=O)c1cnccn1 [PZA, pyrazinamide]
steady state peak plasma level [2]: about 500 μM

O=C(O)c1cnccn1 [POA, pyrazinoic acid]
PARP inhibition (in words) ([3]; at levels readily achieved during conventional PZA therapy): potent inhibitor
ratio of plasma Cmax/IC50 ([3]; known peak plasma level in TB patients over whole-cell PARP IC50): 20
efficacy in vivo [4]: ineffective
steady state peak plasma level [2]: 300 µM
distribution in human granulomas [5]: wide distribution
